These results are taken from ChEMBL document CHEMBL1201862, “PubChem BioAssay data set” (2004).

Active and inactive are the calls of the source. For most assays here, no stated cut-off is given here; in the data, actives have a measured EC50 and inactives only a lower limit.

The nature of assay [1]: inhibitors of firefly luciferase expression or activity, dose response, H4 neuroglioma cells, luminescence (AID 1990). Type of assay: functional, cell-based.
The test system of assay [2] is BJ. As to the kind of experiment: cells. Format: functional, cell-based. As to conditions: Homo sapiens.
Assay [3] is described as follows: Luminescence Cell-Based Dose Response HTS to Identify Inhibitors of 5'UTR Stem-Loop Driven Prion Protein mRNA Translation in H4 Neuroglioblastoma Cells. [Related pubchem assays: 1827 (Project Summary), 1813 (Primary HTS)]. Type of assay: functional.
In assay [4] the test system is BJ. Put plainly: cytotoxicity toward BJ-TERT fibroblasts, dose response, cell-based, RAS-independent, luminescence (AID 1933). Type of assay: functional. Particulars: Homo sapiens.
The nature of assay [5]: inhibitors of SNCA 5'UTR-driven reporter translation, confirmation, H4 neuroglioma cells, luminescence (AID 1988). Format: functional, cell-based.
For the next assay, the system named is HeLa. Put plainly: Cytotoxicity counterscreen assay for transcriptional activators of heat shock protein 70 (Hsp70). [Related pubchem assays: 1203, 1252 ]. As to conditions: Homo sapiens. Format: functional.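 Further: cells exposed to compound for 16 hours before readout.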
Assay [6] in a line: A Cell Based Secondary Assay To Explore Cytotoxicity of Compounds that Sensitize Mycobacterium Tuberculosis to Beta-Lactam Antibiotics. Format: functional.
Assay [7] has as its system BJ. As to the kind of experiment: cytotoxicity toward BJ-TERT-LT-ST fibroblasts, dose response, cell-based, RAS-independent, luminescence (AID 1935).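 Further: BJ fibroblasts immortalized with TERT plus LT and ST oncogenes.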 As to conditions: Homo sapiens. Type of assay: functional.
Assay [8] is described as follows: cytotoxicity toward DRD oncogenic fibroblasts, dose response, cell-based, non-viral oncogenic, luminescence (AID 1934). Type of assay: functional. Particulars: Homo sapiens.
The next assay in a line: cells. Type of assay: functional, cell-based.
Another assay addresses Albumin (Bos taurus, UniProt P02769). Put plainly: Counterscreen for inhibitors of T-cell receptor (TCR)-CD3 interaction: Fluorescence-based biochemical high throughput dose response assay to identify inhibitors of T-cell receptor (TCR)-CD3 interaction using a TAMRA-labeled BSA probe. Type of assay: functional.
Assay [9] can be described thus: luciferase reporter signal reduction – luminescence, H4-C neuroglioblastoma cells, dose response (AID 2458).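 Further: H4 neuroglioblastoma cells stably carrying a luciferase reporter gene fusion.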 Type of assay: functional, cell-based. Background: A reporter such as luciferase makes a cellular process visible.
A short description of assay [10]: inhibitors of SNCA 5'UTR-driven translation, confirmation, luminescence, H4 neuroglioblastoma cells, dose confirmation (AID 2454).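 Further: H4 neuroglioblastoma cells carrying an alpha-synuclein 5'UTR luciferase reporter; potency for inhibition of the luciferase signal.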 Type of assay: functional, cell-based.
The test system of another assay is INS1. Put plainly: beta cell apoptosis inhibitors, cytokine rescue, dose response, luminescence, retest (AID 449756).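 Further: cell death triggered by IL-1 beta plus TNF-alpha plus IFN-gamma mixture; protective hits raise ATP signal compared with cytokine alone wells.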 Particulars: Rattus norvegicus. Format: functional, cell-based.
Another assay deals with HEK293. As to the kind of experiment: inhibitors of LMP1-driven NF-kB reporter, dose response, cell-based, HEK293, luciferase, cherry-pick (AID 588343). Type of assay: functional. Particulars: Homo sapiens.
The next assay deals with HT-1080. Put plainly: cytotoxicity in HT1080 fibrosarcoma cells, cell-based, fluorescence readout (AID 620). Type of assay: functional. As to conditions: Homo sapiens.
Assay [11] concerns the target Luciferin 4-monooxygenase (Photinus pyralis, UniProt P08659). As to the kind of experiment: Counter Screen for Luciferase-based Assay Positives. [Related pubchem assays: 620, 618, 411 ].
Assay [12] addresses T1, Tyrosine-protein phosphatase non-receptor type 7 (Homo sapiens, UniProt P35236).
T1 sequence (P35236 whole entry): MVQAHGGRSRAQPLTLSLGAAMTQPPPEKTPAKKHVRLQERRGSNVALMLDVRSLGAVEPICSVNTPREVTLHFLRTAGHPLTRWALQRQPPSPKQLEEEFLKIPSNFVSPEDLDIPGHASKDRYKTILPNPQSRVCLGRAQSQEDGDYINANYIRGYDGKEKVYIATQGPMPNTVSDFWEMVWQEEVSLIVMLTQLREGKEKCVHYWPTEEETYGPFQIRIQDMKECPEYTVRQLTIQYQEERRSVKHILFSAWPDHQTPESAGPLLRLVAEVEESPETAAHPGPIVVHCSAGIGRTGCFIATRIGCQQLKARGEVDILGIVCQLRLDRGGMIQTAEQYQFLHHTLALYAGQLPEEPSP
As to the kind of experiment: inhibitors of human HePTP phosphatase, […], biochemical, absorbance, leukemia target (AID 521). Format: functional.

Assay [13] deals with T2, Bcl-2-related protein A1 (Mus musculus, UniProt Q07440).
T2 sequence (Q07440 whole entry): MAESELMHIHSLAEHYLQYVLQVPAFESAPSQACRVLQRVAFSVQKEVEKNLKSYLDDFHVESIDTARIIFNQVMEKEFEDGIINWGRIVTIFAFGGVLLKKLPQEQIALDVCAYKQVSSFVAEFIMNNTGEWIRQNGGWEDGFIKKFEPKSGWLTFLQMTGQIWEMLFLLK
As to the kind of experiment: Bfl-1 inhibitors blocking BH3 peptide binding, confirmation, biochemical, TR-FRET, mouse Bfl-1 (AID 621). (In TR-FRET formats the signal depends on donor and acceptor labels being close together.)

Assay [14] addresses T2, Bcl-2-related protein A1. Put plainly: Bfl-1 binding inhibitors, SAR follow-up, biochemical, fluorescence polarization (AID 1070). On the technique in general: Fluorescence polarisation rises when a labelled molecule tumbles more slowly, as on binding a larger partner.
The target of assay [15] is Glyceraldehyde-3-phosphate dehydrogenase (Homo sapiens, UniProt P04406).
Sequence of Glyceraldehyde-3-phosphate dehydrogenase (P04406 whole entry): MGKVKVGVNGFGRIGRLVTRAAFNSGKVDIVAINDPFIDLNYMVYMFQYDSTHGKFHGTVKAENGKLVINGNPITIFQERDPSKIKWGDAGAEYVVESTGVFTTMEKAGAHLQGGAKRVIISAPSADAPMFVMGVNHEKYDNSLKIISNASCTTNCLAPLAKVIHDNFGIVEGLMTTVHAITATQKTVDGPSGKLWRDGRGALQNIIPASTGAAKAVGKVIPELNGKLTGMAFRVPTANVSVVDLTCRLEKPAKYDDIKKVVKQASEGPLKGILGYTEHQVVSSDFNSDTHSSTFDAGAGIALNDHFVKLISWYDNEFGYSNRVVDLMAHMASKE

Sequence of Luciferin 4-monooxygenase (P08659 whole entry): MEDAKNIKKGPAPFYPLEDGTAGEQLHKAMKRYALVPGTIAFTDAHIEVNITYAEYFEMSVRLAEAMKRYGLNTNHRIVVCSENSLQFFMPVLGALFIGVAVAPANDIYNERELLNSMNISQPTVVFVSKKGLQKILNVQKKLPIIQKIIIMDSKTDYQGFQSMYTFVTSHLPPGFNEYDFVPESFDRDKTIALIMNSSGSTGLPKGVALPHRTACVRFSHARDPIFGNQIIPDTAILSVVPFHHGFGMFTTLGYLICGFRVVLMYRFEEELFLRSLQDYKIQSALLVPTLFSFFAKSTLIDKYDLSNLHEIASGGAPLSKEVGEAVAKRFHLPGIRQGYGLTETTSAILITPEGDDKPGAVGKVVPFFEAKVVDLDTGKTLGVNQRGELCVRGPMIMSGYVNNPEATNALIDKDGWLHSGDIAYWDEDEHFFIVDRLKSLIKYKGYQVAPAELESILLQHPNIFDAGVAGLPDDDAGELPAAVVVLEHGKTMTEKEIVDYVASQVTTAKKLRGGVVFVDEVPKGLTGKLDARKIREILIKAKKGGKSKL
Sequence of Albumin (P02769 whole entry, the tested form may be a part): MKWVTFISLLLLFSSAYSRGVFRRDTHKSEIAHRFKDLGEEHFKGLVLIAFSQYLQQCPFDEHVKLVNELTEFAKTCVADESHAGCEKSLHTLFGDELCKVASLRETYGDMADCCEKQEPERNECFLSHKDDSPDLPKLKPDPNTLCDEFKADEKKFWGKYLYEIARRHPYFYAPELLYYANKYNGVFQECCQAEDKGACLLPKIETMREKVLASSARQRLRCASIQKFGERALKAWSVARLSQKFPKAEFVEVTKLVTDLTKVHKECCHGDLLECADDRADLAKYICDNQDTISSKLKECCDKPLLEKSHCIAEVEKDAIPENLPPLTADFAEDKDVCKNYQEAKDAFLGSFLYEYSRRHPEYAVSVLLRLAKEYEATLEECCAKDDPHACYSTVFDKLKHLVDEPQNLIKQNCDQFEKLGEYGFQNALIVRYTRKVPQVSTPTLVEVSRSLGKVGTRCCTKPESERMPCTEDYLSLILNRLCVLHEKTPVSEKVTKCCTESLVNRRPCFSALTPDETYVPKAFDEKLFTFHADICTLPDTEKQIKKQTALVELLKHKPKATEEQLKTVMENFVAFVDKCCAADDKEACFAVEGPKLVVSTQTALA

Broadly, the EC50 is the concentration needed to bring the measured effect to its halfway point. Broadly, the CC50 is the concentration that lowers cell viability or growth by half. Consider `C=CCSc1nccc(-c2nn(-c3ccc(C)cc3)ccc2=O)n1`, for which the EC50 in assay [1] is 9.46 µM (active); in the assay with BJ [2], 111 µM (active); in [3], > 120 µM (not active); with BJ [4] it was 15.6 µM (active); in assay [5] it was 7.52 µM (active); in the assay on BJ [7], 90.2 µM (active). Further, in [8], the EC50 was 3.51 µM (inconclusive). Also, the CC50 was > 33 µM (not active) in the assay with HeLa and 16.7 µM (active) in assay [6].
A word on the IC50: it is the concentration needed to halve the response being measured. The term AC50 denotes the concentration at which the activity in the assay is half-maximal. In the case of `C/C(=N\NC(=O)c1c(C)nc2ccccn12)c1ccc(O)cc1O`, the EC50 is 0.901 µM (active) in “cells”; < 0.1 µM (active) in assay [3]; 0.739 µM (active) in assay [9]; > 12 µM (inconclusive) in assay [10]; < 0.1 µM (active) in assay [5]. Further, the IC50 on Albumin is > 94.1 µM (inactive). Besides, the AC50 in the assay with INS1 was 0.586 µM (active).
As for `C/C(=N/NC(=O)c1cc(C2CC2)[nH]n1)c1cccs1`, the AC50 with HEK293 is 1.63 µM (active). The figures for the EC50 (with HT-1080; in [11]) were > 50 µM (not active) and > 100 µM (not active), respectively.
On to `CCCCNC(=O)c1cc(-c2ccc(OC)c(OC)c2)on1`, for which the IC50 in assay [12] is recorded as > 100 µM (not active).
With `CCN(CC)c1ccc(C(=O)OCC(=O)N2CCN(c3ccccc3)CC2)cc1`, in [12], the IC50 is on record as > 100 µM (not active).
Consider `O=C(Nc1ccc2c(c1)OCCO2)c1cncc(Br)c1`, for which the EC50 in the assay on HT-1080 was > 50 µM (not active); in assay [11] it was 12.1 µM (active).
For the compound `O=C1C(Cl)=C(N2CCN(Cc3ccc4c(c3)OCO4)CC2)C(=O)N1c1ccc(Cl)c(Cl)c1`, the IC50 on Bcl-2-related protein A1 [13] is 2.14 µM (active); on Bcl-2-related protein A1 [14], 4.07 µM (active); in [15], > 100 µM (not active).
As to `CCCOc1c(Br)cc(C(=O)NCC)cc1OC`, the CC50 in the assay with HeLa is > 99 µM (not active).
For the compound `Cc1cc(C(F)(F)F)nc(S(C)(=O)=O)n1`, the IC50 (at Bcl-2-related protein A1 [13]; on Bcl-2-related protein A1 [14]; in [15]) was > 100 µM (not active) each time.
